Data taken from patent US20240270741A1 (Cogent Biosciences, Inc., priority 2023, published 2024).

Biological target: FGFR2 (Homo sapiens, UniProt P21802)
Assay: FGFR wild type enzyme assay (HTRF KinEASE-TK), FGFR2
Settings: Enz FGFR2 (nM)

Sequence of FGFR2 (P21802 399-821 limits assumed): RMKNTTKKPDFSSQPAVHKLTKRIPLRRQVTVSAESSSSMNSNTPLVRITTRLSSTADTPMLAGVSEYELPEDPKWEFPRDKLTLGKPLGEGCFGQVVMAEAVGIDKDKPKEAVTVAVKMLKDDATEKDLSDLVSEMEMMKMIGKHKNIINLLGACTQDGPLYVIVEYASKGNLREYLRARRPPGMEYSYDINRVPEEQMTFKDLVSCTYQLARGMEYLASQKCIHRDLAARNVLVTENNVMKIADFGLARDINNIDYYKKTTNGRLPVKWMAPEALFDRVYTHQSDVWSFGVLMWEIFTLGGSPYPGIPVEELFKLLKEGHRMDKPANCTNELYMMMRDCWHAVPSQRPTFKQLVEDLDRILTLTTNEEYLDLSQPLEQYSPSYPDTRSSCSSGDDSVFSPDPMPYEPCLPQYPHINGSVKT

SMILES	IC50 [nM]
Cc1c(-c2cc(SCCOC(C)C)c3c(C#N)cnn3c2)cnn1[C@H]1CCCNC1 [Example 85, 4-(2-isopropoxyethylsulfanyl)-6-[5-methyl-1-[(3S)-3-piperidyl]pyrazol-4-yl]pyrazolo[1,5-a]pyridine-3-carbonitrile]	7
Cc1c(-c2cc(Sc3ncccc3F)c3c(C#N)cnn3c2)cnn1[C@H]1CCCNC1 [Example 86, 4-[(3-fluoro-2-pyridyl)sulfanyl]-6-[5-methyl-1-[(3S)-3-piperidyl]pyrazol-4-yl]pyrazolo[1,5-a]pyridine-3-carbonitrile]	2
CCSc1cc(-c2cnn([C@H]3CCCN(C[C@H](O)CO)C3)c2)cn2ncc(C#N)c12 [Example 87, 6-[1-[(3S)-1-[(2S)-2,3-dihydroxypropyl]-3-piperidyl]pyrazol-4-yl]-4-ethylsulfanyl-pyrazolo[1,5-a]pyridine-3-carbonitrile]	1
CC(C)Sc1cc(-c2cnn([C@H]3CCCN(C[C@H](O)CO)C3)c2)cn2ncc(C#N)c12 [Example 88, 6-[1-[(3S)-1-[(2S)-2,3-dihydroxypropyl]-3-piperidyl]pyrazol-4-yl]-4-isopropylsulfanyl-pyrazolo[1,5-a]pyridine-3-carbonitrile]	1
CC(C)Sc1cc(-c2cnn([C@H]3CCCN(CCO)C3)c2)cn2ncc(C#N)c12 [Example 89, 6-[1-[(3S)-1-(2-hydroxyethyl)-3-piperidyl]pyrazol-4-yl]-4-isopropylsulfanyl-pyrazolo[1,5-a]pyridine-3-carbonitrile]	1
N#Cc1cnn2cc(-c3cnn(C4CCN(CCO)CC4)c3)cc(Sc3ccccn3)c12 [Example 90, 6-[1-[1-(2-hydroxyethyl)-4-piperidyl]pyrazol-4-yl]-4-(2-pyridylsulfanyl)pyrazolo[1,5-a]pyridine-3-carbonitrile]	2
N#Cc1cnn2cc(-c3cnn([C@H]4CCCN(CCO)C4)c3)cc(Sc3ccccn3)c12 [Example 91, 6-[1-[(3S)-1-(2-hydroxyethyl)-3-piperidyl]pyrazol-4-yl]-4-(2-pyridylsulfanyl)pyrazolo[1,5-a]pyridine-3-carbonitrile]	2
CC(C)N1CCC(n2cc(-c3cc(Sc4ccccn4)c4c(C#N)cnn4c3)cn2)CC1 [Example 92, 6-[1-(1-isopropyl-4-piperidyl)pyrazol-4-yl]-4-(2-pyridylsulfanyl)pyrazolo[1,5-a]pyridine-3-carbonitrile]	3
CC(=O)N1CCC(n2cc(-c3cc(Sc4ccccn4)c4c(C#N)cnn4c3)cn2)CC1 [Example 93, 6-[1-(1-acetyl-4-piperidyl)pyrazol-4-yl]-4-(2-pyridylsulfanyl)pyrazolo [1,5-a]pyridine-3-carbonitrile]	3
CN1CCC[C@H]1C(=O)N1CCC(n2cc(-c3cc(Sc4ccccn4)c4c(C#N)cnn4c3)cn2)CC1 [Example 94, 6-[1-[1-[(2S)-1-methylpyrrolidine-2-carbonyl]-4-piperidyl]pyrazol-4-yl]-4-(2-pyridylsulfanyl) pyrazolo[1,5-a]pyridine-3-carbonitrile]	2
N#Cc1cnn2cc(-c3ccc(N4CCCC4)nc3)cc(Sc3ccccn3)c12 [Example 95, 4-(2-pyridylsulfanyl)-6-(6-pyrrolidin-1-yl-3-pyridyl)pyrazolo[1,5-a]pyridine-3-carbonitrile]	13
N#Cc1cnn2cc(-c3ccc(OCCN4CCOCC4)nc3)cc(Sc3ccccn3)c12 [Example 96, 6-[6-(2-morpholinoethoxy)-3-pyridyl]-4-(2-pyridylsulfanyl) pyrazolo[1,5-a]pyridine-3-carbonitrile]	82
N#Cc1cnn2cc(-c3cnn([C@H]4CCN(CCO)C4)c3)cc(Sc3ccccn3)c12 [Example 97, (S)-6-(1-(1-(2-hydroxyethyl)pyrrolidin-3-yl)-1H-pyrazol-4-yl)-4-(pyridin-2-ylthio)pyrazolo[1,5-a]pyridine-3-carbonitrile]	4
Cc1c(-c2cc(Sc3ccccn3)c3c(C#N)cnn3c2)cnn1C1CCN(C(=O)CO)CC1 [Example 98, 6-(1-(1-(2-hydroxyacetyl)piperidin-4-yl)-5-methyl-1H-pyrazol-4-yl)-4-(pyridin-2-ylthio)pyrazolo[1,5-a]pyridine-3-carbonitrile]	7
Cc1c(-c2cc(Sc3ccccn3)c3c(C#N)cnn3c2)cnn1C1CCN(C(=O)[C@@H]2CCCN2C)CC1 [Example 99, 6-(5-methyl-1-(1-(methyl-L-prolyl)piperidin-4-yl)-1H-pyrazol-4-yl)-4-(pyridin-2-ylthio)pyrazolo[1,5-a]pyridine-3-carbonitrile]	5
Cc1c(-c2cc(Sc3ccccn3)c3c(C#N)cnn3c2)cnn1C1CCN(CCO)CC1 [Example 100, 6-(1-(1-(2-hydroxyethyl)piperidin-4-yl)-5-methyl-1H-pyrazol-4-yl)-4-(pyridin-2-ylthio)pyrazolo[1,5-a]pyridine-3-carbonitrile]	5
Cc1c(-c2cc(Sc3ncccc3F)c3c(C#N)cnn3c2)cnn1C1CCNCC1 [Example 101, 4-[(3-fluoro-2-pyridyl)sulfanyl]-6-[5-methyl-1-(4-piperidyl)pyrazol-4-yl] pyrazolo[1,5-a]pyridine-3-carbonitrile]	2
Cc1c(-c2cc(Sc3ncccc3F)c3c(C#N)cnn3c2)cnn1[C@@H]1CCCNC1 [Example 102, 4-[(3-fluoro-2-pyridyl)sulfanyl]-6-[5-methyl-1-[(3R)-3-piperidyl]pyrazol-4-yl]pyrazolo[1,5-a]pyridine-3-carbonitrile]	6
Cc1c(-c2cc(Sc3ncccc3F)c3c(C#N)cnn3c2)cnn1[C@H]1CCNC1 [Example 103]	4
Cc1c(-c2cc(Sc3ccccc3C#N)c3c(C#N)cnn3c2)cnn1C1CCNCC1 [Example 104]	1
Cc1c(-c2cc(Sc3ccccc3C#N)c3c(C#N)cnn3c2)cnn1[C@H]1CCCNC1 [Example 105, 4-(2-cyanophenyl)sulfanyl-6-[5-methyl-1-[(3S)-3-piperidyl]pyrazol-4-yl]pyrazolo[1,5-a]pyridine-3-carbonitrile]	1
Cc1c(-c2cc(Sc3ccccc3C#N)c3c(C#N)cnn3c2)cnn1[C@@H]1CCNC1 [Example 106, 4-(2-cyanophenyl) sulfanyl-6-[5-methyl-1-[(3R)-pyrrolidin-3-yl]pyrazol-4-yl]pyrazolo[1,5-a]pyridine-3-carbonitrile]	2
Cc1c(-c2cc(Sc3ncccc3F)c3c(C#N)cnn3c2)cnn1C1CCN(C)CC1 [Example 107, 4-[(3-fluoro-2-pyridyl)sulfanyl]-6-[5-methyl-1-(1-methyl-4-piperidyl)pyrazol-4-yl]pyrazolo[1,5-a]pyridine3-carbonitrile]	1
Cc1c(-c2cc(Sc3ncccc3F)c3c(C#N)cnn3c2)cnn1C1CCN(CCO)CC1 [Example 108, 4-[(3-fluoro-2-pyridyl)sulfanyl]-6-[5-methyl-1-(1-methyl-4-piperidyl)pyrazol-4-yl]pyrazolo[1,5-a]pyridine3-carbonitrilee]	2

The remaining lines, values ahead:

IC50 [nM]	SMILES
2	COCCN1CCC(n2ncc(-c3cc(Sc4ncccc4F)c4c(C#N)cnn4c3)c2C)CC1 [Example 109, 4-[(3-fluoro-2-pyridyl)sulfanyl]-6-[1-[1-(2-methoxyethyl)-4-piperidyl]-5-methyl-pyrazol-4-yl]pyrazolo[1,5-a]pyridine-3-carbonitrile]
3	Cc1c(-c2cc(Sc3ncc(F)cc3F)c3c(C#N)cnn3c2)cnn1C1CCNCC1 [Example 110, 4-[(3,5-difluoro-2-pyridyl)sulfanyl]-6-[5-methyl-1-(4-piperidyl)pyrazol-4-yl]pyrazolo[1,5-a]pyridine-3-carbonitrile]
3	Cc1ccc(F)c(Sc2cc(-c3cnn(C4CCN(C)CC4)c3C)cn3ncc(C#N)c23)n1 [Example 111, 4-[(3-fluoro-6-methyl-2-pyridyl)sulfanyl]-6-[5-methyl-1-(1-methyl-4-piperidyl)pyrazol-4-yl]pyrazolo[1,5-a]pyridine-3-carbonitrile]
2	Cc1c(-c2cc(Sc3ccccc3C#N)c3c(C#N)cnn3c2)cnn1[C@@H]1CCCNC1 [Example 112, 4-(2-cyanophenyl)sulfanyl-6-[5-methyl-1-[(3R)-3-piperidyl]pyrazol-4-yl]pyrazolo[1,5-a]pyridine-3-carbonitrile]
1	Cc1c(-c2cc(Sc3ncccc3F)c3c(C#N)cnn3c2)cnn1[C@H]1CC[C@@H](N(C)C)CC1 [Example 113]
3	Cc1nc(Sc2cc(-c3cnn(C4CCNCC4)c3C)cn3ncc(C#N)c23)ccc1F [Example 114, 4-[(5-fluoro-6-methyl-2-pyridyl)sulfanyl]-6-[5-methyl-1-(4-piperidyl)pyrazol-4-yl]pyrazolo[1,5-a]pyridine-3-carbonitrile]
1	Cc1nc(Sc2cc(-c3cnn(C4CCNCC4)c3C)cn3ncc(C#N)c23)ccc1Cl [Example 115, 4-[(5-chloro-6-methyl-2-pyridyl)sulfanyl]-6-[5-methyl-1-(4-piperidyl)pyrazol-4-yl]pyrazolo[1,5-a]pyridine-3-carbonitrile]
45	Cc1cc(Sc2cc(-c3cnn(C4CCNCC4)c3C)cn3ncc(C#N)c23)c(F)cn1 [Example 116, -[(5-fluoro-2-methyl-4-pyridyl)sulfanyl]-6-[5-methyl-1-(4-piperidyl)pyrazol-4-yl]pyrazolo[1,5-a]pyridine-3-carbonitrile]
1	Cc1c(-c2cc(Sc3ccccc3F)c3c(C#N)cnn3c2)cnn1C1CCNCC1 [Example 118, 4-(2-fluorophenyl)sulfanyl-6-[5-methyl-1-(4-piperidyl)pyrazol-4-yl]pyrazolo[1,5-a]pyridine-3-carbonitrile]
1	Cc1c(-c2cc(Sc3c(F)cccc3C#N)c3c(C#N)cnn3c2)cnn1C1CCN(C)CC1 [Example 119]
1	Cc1c(-c2cc(Sc3cccn4cncc34)c3c(C#N)cnn3c2)cnn1C1CCN(C)CC1 [Example 120, 4-imidazo[1,5-a]pyridin-8-ylsulfany1-6-[5-methyl-1-(1-methyl-4-piperidyl)pyrazol-4-yl]pyrazolo[1,5-a]pyridine-3-carbonitrile]
99	Cc1nccc(Sc2cc(-c3cnn(C4CCNCC4)c3C)cn3ncc(C#N)c23)c1F [Example 121]
